Experiment: Storage stability of the solid in a refrigerator (HPLC assay and purity)
Assay type: physicochemical
Details: for Assay (HPLC) / Purity (HPLC): solid stored at 2° C. to 8° C.
Experimental: This solid was stored at a temperature from 2° C. to 8° C. in a refrigerator. Thereby the following stability dates were obtained for this solid: […]

Row | SMILES | Assay (HPLC) (time 0 months) | Purity (HPLC) (time 0 months) | Assay (HPLC) (time 3 months) | Purity (HPLC) (time 3 months) | Assay (HPLC) (time 6 months) | Purity (HPLC) (time 6 months) | Assay (HPLC) (time 9 months) | Purity (HPLC) (time 9 months) | Assay (HPLC) (time 12 months) | Purity (HPLC) (time 12 months) | Stability of the solid compared with crystalline (6RS)-folinic acid (general statement in words) | Assay (HPLC) (time 1 month) | Purity (HPLC) (time 1 month) | Assay (HPLC) (time 2 months) | Purity (HPLC) (time 2 months)
1 | Nc1nc2c(c(=O)[nH]1)N(C=O)C(CNc1ccc(C(=O)N[C@@H](CCC(=O)O)C(=O)O)cc1)CN2 (mixture of isomers) [Example 1, (6RS)-N(5)-formyl-5,6,7,8-tetrahydrofolic acid] | 99.4% | 99.78% | 99.0% | 99.79% | 99.1% | 99.75% | 100.2% | 99.82% | 99.9% | 99.79%. |  |  |  |  | 
2 | Nc1nc2c(c(=O)[nH]1)N(C=O)[C@@H](CNc1ccc(C(=O)N[C@@H](CCC(=O)O)C(=O)O)cc1)CN2 [Example 2, (6S)-N(5)-formyl-5,6,7,8-tetrahydrofolic acid] | 99.0% | 99.2% | 98.9% | 98.9% | 98.1% | 98.4% |  |  | 97.8% | 97.2%. | stability comparable with the crystalline (6RS)-folinic acid | 98.5% | 99.0% | 98.1% | 98.9%

Reference: US20080153849A1, “Process for the Preparation of Crystalline (6Rrs)-N(5)-Formyl-5,6,7,8-Tetrahydrofolic Acid” (priority 2004, published 2008)
